Measured values from patent publication US4683331A, “Omega-(2,4-dihalobiphenylyl) oxo alkanoic acids” (Spofa spojene podniky pro zdravotnickou, priority 1984, dated 1987).

Legend:
Carrageenin edema [1] = conditions: J. Pharm. Sci. Vol. 66 (1977); cited from earlier work
adjuvant arthritis = conditions: J. Pharm. Sci. Vol. 66 (1977); cited from earlier work
in vivo = conditions: acute (short-term) toxicity
Carrageenin edema [2] = experiment: Carrageenin edema; type: in vivo; conditions: single dose
Procedure: (§1) Anti-inflammatory activity is measured according to
(§2) Carrageenin edema and Freund adjuvans edema. The assay for
Carrageenin edema was performed according to J. Winter, Proc.
Soc. Exptl. Biol. Med. Vol. 111 (1962), p 544. Single oral doses
Edema size was evaluated 1, 24, and 48
(§3) hours after administration of each compound. The assay for Free
(§4) after administration of each compound. All of the tabulated
(§5) values are statistically significant (p < 0.05) except for those

Freund adjuvans edema = experiment: Freund adjuvans edema; type: in vivo; conditions: single dose
Procedure: as §1, §2, §3
adjuvans edema was performed according to Z. Horakova and J.
Grimova, Ceskosl. Fys. Vol. 17 (1968), p. 137. Single oral doses
The edema was evaluated 1, and 24 hours
as §4, §5

[3] = 25 mg/kg po, bracketed values not significant
[4] = 10 mg/kg po, bracketed values not significant
[5] = 100 mg/kg po, bracketed values not significant

Compound	activity for Carrageenin edema (Carrageenin edema [1])	percent inhibition for adjuvant arthritis (adjuvant arthritis)	activity for adjuvant arthritis (in words) (adjuvant arthritis)	LD50 (in vivo)	Carrageenin % inhibition 1 hr (Carrageenin edema [2]; [3])	Carrageenin % inhibition 24 hr (Carrageenin edema [2]; [3])	Carrageenin % inhibition 48 hr (Carrageenin edema [2]; 25 mg/kg po)	Carrageenin % inhibition 1 hr (Carrageenin edema [2]; 100 mg/kg po)	Carrageenin % inhibition 24 hr (Carrageenin edema [2]; 100 mg/kg po)	Carrageenin % inhibition 48 hr (Carrageenin edema [2]; 100 mg/kg po)	Adjuvans % inhibition 1 hr (Freund adjuvans edema; 10 mg/kg po)	Adjuvans % inhibition 24 hr (Freund adjuvans edema; [4])	Adjuvans % inhibition 1 hr (Freund adjuvans edema; 25 mg/kg po)	Adjuvans % inhibition 24 hr (Freund adjuvans edema; [3])	Adjuvans % inhibition 1 hr (Freund adjuvans edema; 100 mg/kg po)	Adjuvans % inhibition 24 hr (Freund adjuvans edema; [5])	Adjuvans % inhibition 1 hr (Freund adjuvans edema; 50 mg/kg po)	Adjuvans % inhibition 24 hr (Freund adjuvans edema; 50 mg/kg po)	Adjuvans % inhibition 1 hr (Freund adjuvans edema; 20 mg/kg po)	Adjuvans % inhibition 24 hr (Freund adjuvans edema; 20 mg/kg po)
O=C(O)CCC(=O)c1ccc(-c2ccc(Cl)cc2)cc1 [4'-Cl-fenbufen]	no activity	61%	–	–	–	–	–	–	–	–	–	–	–	–	–	–	–	–	–	–
O=C(O)CCC(=O)c1ccc(-c2ccc(F)cc2)cc1 [4'-F-fenbufen]	1.7	–	no activity	–	–	–	–	–	–	–	–	–	–	–	–	–	–	–	–	–
CC(CC(=O)c1ccc(-c2ccc(Cl)cc2Cl)cc1)C(=O)O (stereo not drawn) [Compound 1]	–	–	–	450 mg/kg	27%	54%	58%	35%	73%	58%	37%	38%	40%	46%	45%	55%	–	–	–	–
CC(CC(=O)c1ccc(-c2ccc(F)cc2F)cc1)C(=O)O (stereo not drawn) [Compound 2]	–	–	–	500 mg/kg	30%	61%	42%	44%	66%	45%	–	–	56%	32%	–	–	53%	46%	–	–
CC(CC(=O)c1ccc(-c2ccc(F)cc2)cc1)C(=O)O (stereo not drawn) [Compound 3]	–	–	–	500 mg/kg	16%	21%	–	33%	34%	–	37%	31%	–	–	–	–	–	–	42%	39%
O=C(O)CCC(=O)c1ccc(-c2ccccc2)cc1 [Compound 4]	–	–	–	–	40%	14%	–	46%	38%	0%	27%	8%	31%	9%	54%	7%	–	–	–	–
